{"source": "patent US20140357512A1", "about": "“HISTONE DEACETYLASE (HDAC) BIOMARKERS IN MULTIPLE MYELOMA” (priority 2013, published 2014)", "test_system": "human myeloma cell line MM.1S", "assay": "SILAC acetylated-lysine peptide profiling, HDAC inhibitor vs DMSO (light/heavy ratio)", "type": "cell-based", "source_text": "An embodiment of the invention comprises utilizing the SILAC method in order to quantitate changes in protein expression between two or more populations of cells. The SILAC method is a technique based on mass spectrometry that detects differences in protein abundance among samples using non-radioactive isotopic labeling. The SILAC method is known in the art, and described in detail in Ong et al., “Stable Isotope Labeling by Amino Acids in Cell Culture, SILAC, as a Simple and Accurate Approach to Expression Proteomics”, Molecular & Cellular Proteomics, vol. 1, pp. 376-386 (2002), which is incorporated herein by reference in its entirety.\nBriefly, the SILAC method involves growing two populations of cells in cell culture. The first population of cells is grown in growth media containing normal amino acids (“normal media”). The second population of cells is grown in media lacking a standard essential amino acid (such as lysine), but is then supplemented with a non-radioactive, isotopically labeled form of that essential amino acid (such as lysine labeled with ^13C atoms, rather than normal ^12C atoms), which is called “heavy media”. When the two populations of cells are each growing in the medium, they incorporate the amino acids into all of their proteins. The growth of cells maintained in the heavy media is no different from that in normal media. All peptides containing the heavy amino acids are heavier than their normal counterparts. The cells from each of the two populations of cells are lysed. The lysates from each of the two cell populations are then combined. The combined cell lysates are then analyzed by mass spectrometry. Pairs of chemically identical peptides of different stable isotope composition can be differentiated in a mass spectrometer due to their difference in mass. The ratio of peak intensities in the mass spectrum for such peptide pairs reflects the abundance ratio for the two proteins.\nThis example describes SILAC studies that were performed to compare the effects of three different HDAC inhibitors (Compound A, Compound B, and tubastatin A) to a control on a human multiple myeloma cell line. The HDAC inhibitors were also compared amongst themselves to determine differences in their effects.\nA human myeloma cell line MM.1S was grown using either ^12C (light) or ^13C (heavy) lysine containing culture medium. The “heavy” cells were treated with DMSO as the control, and the “light” cells were treated with a single HDAC inhibitor at 37° C. for 6 hours. The heavy and light cells were lysed, and the lysates were mixed in 1:1 ratio and digested with the protease trypsin. The acetylated lysine containing peptides (due to the action of the HDAC inhibitor) in the digested peptide pool were captured by a non-specific anti-acetylated lysine antibody cocktail (the antibodies identify both light and heavy acetylated peptides), and subjected to mass spectrometry analysis in order to identify thousands of individual peptides.\nThousands of peptides were identified in pairs (^12C and ^13C) due to their known mass differences. The amino acid sequence and quantitative ratio (Light/Heavy) of a given peptide in two differentially treated cell lysates were then determined and annotated with their possible protein (gene) sources.\nAs stated above, three HDAC inhibitors (Compound A, Compound B, and Tubastatin A) were used. Thus, the SILAC method was performed three times, with a different HDAC inhibitor compared to a control each time. Accordingly, there are three pairs of quantitative data in the table below, i.e., Compound A:DMSO, Compound B:DMSO, and Tubastatin A:DMSO. A cut-off of 1.30 fold of change (increase or decrease) was then used to determine “changed” or “+” in the table, and any peptides with a fold of change less than 1.3 fold were determined to be “unchanged” or “0” in the table. Those peptides that were not identified were marked as “NA” in the table. […]"}
{"smiles": "O=C(NO)c1cnc(NC2(c3cccc(F)c3)CCCCC2)nc1", "note": "[Compound B, 2-((1-(3-fluorophenyl)cyclohexyl)amino)-N-hydroxypyrimidine-5-carboxamide]", "values": [{"measurement": "light to heavy ratio (L/H ratio) of acetylated peptide, log 2 scale", "setting": "NK(ac)[…] (SEQ ID NO: 237), Vesicle-associated membrane protein 8 [47], VAMP8", "value": 0.00}, {"measurement": "light to heavy ratio (L/H ratio) of acetylated peptide, log 2 scale", "setting": "NLDK(ac)[…] (SEQ ID NO: 159), Aspartate aminotransferase mitochondrial [94], GOT2", "value": 0.00}, {"measurement": "L/H ratio of acetylated peptide", "setting": "NLK(ac)NEITK (SEQ ID NO: 380), Isoform 1 of Coatomer subunit alpha [441], COPA", "value": 0.40, "unit": "log 2"}, {"measurement": "L/H ratio of acetylated peptide", "setting": "NLPFSVENK(ac)WSLLAK (SEQ ID NO: 382), Cytochrome c oxidase subunit 7C mitochondrial [34], COX7C", "value": "−0.87", "unit": "log 2"}, {"measurement": "L/H ratio of acetylated peptide ADKDYHFK(ac)[…] (SEQ ID NO: 61)", "setting": "NPM1 [32], log 2 scale, drug vs DMSO", "value": 0.00}, {"measurement": "L/H ratio of acetylated peptide GVTQFGNK(ac)[…] (SEQ ID NO: 18)", "setting": "NUDT21 [23], log 2 scale, drug vs DMSO", "value": 0.50}, {"measurement": "L/H ratio of acetylated peptide", "setting": "NVQQTVSAK(ac)GPPEK(ac)R (SEQ ID NO: 416), Mediator of RNA polymerase II transcription subunit 6 [243:248], MED6", "value": 0.49, "unit": "log 2"}, {"measurement": "L/H ratio of acetylated peptide", "setting": "NVYK(ac)FELDTSER (SEQ ID NO: 444), Dolichyl-diphosphooligosaccharide--protein glycosyltransferase subunit 2 [460], RPN2", "value": 0.54, "unit": "log 2"}, {"measurement": "light to heavy ratio (L/H ratio) of acetylated peptide FCLSK(ac)PGVYK (SEQ ID NO: 345)", "setting": "Nodal modulator 1 [630], NOMO3, NOMO1, drug:DMSO", "value": 0.59, "unit": "log 2"}, {"measurement": "light to heavy ratio (L/H ratio) of acetylated peptide […](ac)R (SEQ ID NO: 532)", "setting": "Nucleosome assembly protein 1-like 1 [116], gene NAP1L1, inhibitor:DMSO", "value": 0.00, "unit": "log 2"}, {"measurement": "L/H ratio of acetylated peptide PSHLTNK(ac)FEDK (SEQ ID NO: 65)", "setting": "PDIA3 [214], log 2 scale, drug vs DMSO", "value": 0.00}, {"measurement": "L/H ratio of acetylated peptide GEK(ac)FVMQEEFSR (SEQ ID NO: 64)", "setting": "PDIA3 [335], log 2 scale, drug vs DMSO", "value": 0.00}, {"measurement": "L/H ratio of acetylated peptide SLLGK(ac)DVLFLK (SEQ ID NO: 67)", "setting": "PGK1 [91], log 2 scale, drug vs DMSO", "value": 0.00}, {"measurement": "L/H ratio of acetylated peptide SIYGEK(ac)FEDENFILK (SEQ ID NO: 68)", "setting": "PPIA [82], log 2 scale, drug vs DMSO", "value": 0.00}, {"measurement": "L/H ratio of acetylated peptide VIFGLFGK(ac)TVPK (SEQ ID NO: 70)", "setting": "PPIB [67], log 2 scale, drug vs DMSO", "value": 0.00}, {"measurement": "L/H ratio of acetylated peptide TVPK(ac)[…] (SEQ ID NO: 69)", "setting": "PPIB [71], log 2 scale, drug vs DMSO", "value": 0.00}, {"measurement": "L/H ratio of acetylated peptide VIK(ac)[…] (SEQ ID NO: 71)", "setting": "PPIB [98], log 2 scale, drug vs DMSO", "value": 0.00}, {"measurement": "L/H ratio of acetylated peptide IYGFYDECK(ac)R (SEQ ID NO: 72)", "setting": "PPP1CC [141], log 2 scale, drug vs DMSO", "value": 0.00}, {"measurement": "light to heavy ratio (L/H ratio) of acetylated peptide TAWLDGK(ac)HVVFGK (SEQ ID NO: 592)", "setting": "Peptidyl-prolyl cis-trans isomerase B [165], gene PPIB, inhibitor:DMSO", "value": 0.00, "unit": "log 2"}, {"measurement": "light to heavy ratio (L/H ratio) of acetylated peptide FPDENFK(ac)LK (SEQ ID NO: 347)", "setting": "Peptidyl-prolyl cis-trans isomerase C [123], PPIC, drug:DMSO", "value": "−1.00", "unit": "log 2"}, {"measurement": "light to heavy ratio (L/H ratio) of acetylated peptide HVVFGK(ac)VK (SEQ ID NO: 576)", "setting": "Peptidylprolyl isomerase A (Cyclophilin A) (PPIA) pseudogene [141], gene PPIAP26, inhibitor:DMSO", "value": 0.00, "unit": "log 2"}, {"measurement": "light to heavy ratio (L/H ratio) of acetylated peptide LAK(ac)YFFNK (SEQ ID NO: 604)", "setting": "Periodic tryptophan protein 2 homolog [279], gene PWP2, inhibitor:DMSO", "value": 0.00, "unit": "log 2"}, {"measurement": "light to heavy ratio (L/H ratio) of acetylated peptide […](ac)DELKK (SEQ ID NO: 346)", "setting": "Poly [ADP-ribose] polymerase 1 [249], PARP1, drug:DMSO", "value": 0.83, "unit": "log 2"}, {"measurement": "light to heavy ratio (L/H ratio) of acetylated peptide FVVEK(ac)AEQQK (SEQ ID NO: 263)", "setting": "Prohibitin [202], PHB, drug:DMSO", "value": 0.00, "unit": "log 2"}, {"measurement": "light to heavy ratio (L/H ratio) of acetylated peptide FEYK(ac)YSFK (SEQ ID NO: 340)", "setting": "Protein ERGIC-53 [49], LMAN1, drug:DMSO", "value": "−0.52", "unit": "log 2"}, {"measurement": "light to heavy ratio (L/H ratio) of acetylated peptide HFAFK(ac)[…] (SEQ ID NO: 554)", "setting": "Protein FAM3C [72], gene FAM3C, inhibitor:DMSO", "value": 0.00, "unit": "log 2"}, {"measurement": "light to heavy ratio (L/H ratio) of acetylated peptide GYPTIK(ac)FFR (SEQ ID NO: 541)", "setting": "Protein disulfide-isomerase [103], gene P4HB, inhibitor:DMSO", "value": 0.00, "unit": "log 2"}, {"measurement": "light to heavy ratio (L/H ratio) of acetylated peptide THILLFLPK(ac)SVSDYDGK (SEQ ID NO: 297)", "setting": "Protein disulfide-isomerase [263], P4HB, drug:DMSO", "value": 0.00, "unit": "log 2"}, {"measurement": "light to heavy ratio (L/H ratio) of acetylated peptide VLVGK(ac)[…] (SEQ ID NO: 303)", "setting": "Protein disulfide-isomerase [375], P4HB, drug:DMSO", "value": 0.00, "unit": "log 2"}, {"measurement": "light to heavy ratio (L/H ratio) of acetylated peptide […](ac)K (SEQ ID NO: 286)", "setting": "Protein disulfide-isomerase [385], P4HB, drug:DMSO", "value": 0.00, "unit": "log 2"}, {"measurement": "light to heavy ratio (L/H ratio), log 2 scale, acetylated peptide VYK(ac)EMYK (SEQ ID NO: 777)", "setting": "Putative annexin A2-like protein [148], gene ANXA2P2, drug:DMSO", "value": 0.00}, {"measurement": "light to heavy ratio (L/H ratio), log 2 scale, acetylated peptide SVPHLQK(ac)VFDR (SEQ ID NO: 776)", "setting": "Putative annexin A2-like protein [227], gene ANXA2P2, drug:DMSO", "value": 0.00}]}
